Reference: patent publication US20210164015A1, “ANTIMICROBIAL SUSCEPTIBILITY TESTING USING MICRODROPLETS” (Becton, Dickinson and Company, priority 2018, published 2021)

Test system: E. coli
Assay: microdroplet antibiotic susceptibility testing (AST) using a fluorescent viability indicator
Assay type: cell-based
Settings: for fluorescence intensity of microdroplets (fluorescent viability indicator): E. coli encapsulated in microdroplets
Description: FIGS. 3A-3D depict results of an embodiment of microdroplet antibiotic susceptibility testing using a fluorescent viability indicator. FIG. 3A depicts change in fluorescent intensity in microdroplets at 1-hour, 2-hour, and 3-hour time points in samples without antibiotic (condition A) and samples with antibiotic at two times MIC (condition B). FIG. 3B depicts micrographs of microdroplets under the conditions of FIG. 3A.
Some embodiments provided herein relate to a first mode for determining microbial viability. A first mode for determining microbial viability is schematically depicted in FIG. 1. As described herein, a first mode for determining microbial viability includes providing a sample having microbes therein, dividing the sample into a number of portions, preparing microdroplets encapsulating microbes from the sample, either before or after the portions are formed (FIG. 1 depicts forming portions first), contacting each portion to a different concentration of an antimicrobial of interest either before or after preparing the microdroplets (FIG. 1 depicts adding an antibiotic prior to forming microdroplets), and measuring viability of the microbes by measuring a signal of microbial viability. Measuring a signal of microbial viability may be performed by obtaining a measure of microbial viability from a discrete subset of microdroplets, or a plurality of discrete subsets of microdroplets, from a population of microdroplets. The results for the measurements from discrete subsets of microdroplets at a first time point can then be combined to generate a result for the portion of the sample from which the microdroplet(s) were taken at this first time point. This process can be repeated at additional time points to determine microbial viability in that portion over time, thereby determining the susceptibility of the microbe to a given concentration of antimicrobial. Typically, it is not necessary to measure the exact same population of microdroplets at the first and subsequent time points, as long as the population of microdroplets measured at each time point are representative of the portion of the sample from which they are taken. The results from the various portions exposed to different concentrations of antimicrobial can then be used to determine the susceptibility of the microbe to the antimicrobial. […] Conversely, an increase in the measure of microbial viability over time indicates growth of microbes in the concentration of antimicrobial present in the portion of the sample from which the measurements were made. A minimum inhibitory concentration can be determined utilizing the results of antimicrobial susceptibility and/or microbe growth from the several portions of the sample exposed to different concentrations of antimicrobial. […]

CC1(C)S[C@@H]2[C@H](NC(=O)[C@H](N)c3ccccc3)C(=O)N2[C@H]1C(=O)O [ampicillin]
fluorescence intensity of microdroplets (fluorescent viability indicator) (antibiotic at 2×MIC (Condition B), 1 hour incubation (t1)): remained low | fluorescence intensity of microdroplets (fluorescent viability indicator) (antibiotic at 2×MIC (Condition B), 2 hours and 3 hours incubation (t2, t3)): remained low | E. coli growth in microdroplets (antibiotic at 2×MIC (Condition B), 2 hours and 3 hours, inferred from fluorescence intensity): no E. coli growth | presence of E. coli in micrographs of microdroplets (FIG. 3D) (microdroplets exposed to antibiotic at 2×MIC (Condition B)): no E. coli is present
